Reference: patent publication US12194051B2, “5-azaindazole derivatives as adenosine receptor antagonists” (MERCK PATENT GMBH, priority 2018, dated 2025)

Assays:
[1] = molecular target: T1, human A2B receptors (Homo sapiens, UniProt P29275); experiment: Inhibition of human A2B receptor in recombinant HEK293 cells, cAMP quantification (HTRF); assay type: cell-based; conditions: read-out: A2B (Category)
T1 construct: expressed in transfected cells; host or cells: HEK293
T1 sequence (P29275 1-332): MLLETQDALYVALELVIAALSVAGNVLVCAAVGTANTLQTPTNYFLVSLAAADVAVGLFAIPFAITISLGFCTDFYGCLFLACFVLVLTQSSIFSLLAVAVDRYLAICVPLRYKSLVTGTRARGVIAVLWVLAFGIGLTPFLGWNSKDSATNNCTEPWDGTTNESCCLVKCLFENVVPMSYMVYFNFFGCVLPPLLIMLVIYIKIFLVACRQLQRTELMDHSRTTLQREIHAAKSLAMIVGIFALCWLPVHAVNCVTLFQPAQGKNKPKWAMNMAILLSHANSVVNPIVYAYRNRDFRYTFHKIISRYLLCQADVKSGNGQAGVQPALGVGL
Description: (§1) The functional activities of human A2A and A2B receptors were determined by quantification of cAMP, being the second messenger for adenosine receptors.
(§2) After a 15 min incubation, HTRF reagents (cAMP dynamic 2, Cis Bio) were added and the cellular cAMP levels were determined using the ENVISION (Perkin Elmer) plate reader.

[2] = molecular target: T2, human A2A receptors (Homo sapiens, UniProt P29274); experiment: Inhibition of human A2A receptor in recombinant HEK293 cells, cAMP quantification (HTRF); assay type: cell-based; conditions: read-out: A2A (Category)
T2 construct: expressed in transfected cells; host or cells: HEK293
Description: as §1, §2

T2 sequence (P29274 whole entry): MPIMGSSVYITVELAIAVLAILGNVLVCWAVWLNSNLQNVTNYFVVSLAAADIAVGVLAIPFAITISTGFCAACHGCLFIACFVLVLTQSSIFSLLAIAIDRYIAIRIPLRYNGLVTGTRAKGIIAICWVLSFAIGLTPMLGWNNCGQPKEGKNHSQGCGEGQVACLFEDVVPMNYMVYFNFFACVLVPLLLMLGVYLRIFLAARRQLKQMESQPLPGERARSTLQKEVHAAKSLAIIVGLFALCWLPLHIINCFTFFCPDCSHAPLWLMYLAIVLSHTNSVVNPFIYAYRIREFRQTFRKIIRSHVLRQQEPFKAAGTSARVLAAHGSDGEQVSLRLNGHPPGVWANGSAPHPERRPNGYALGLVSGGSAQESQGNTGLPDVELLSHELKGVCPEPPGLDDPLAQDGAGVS

Compound	IC50 [1] [nM]	IC50 [2] [nM]
CC(C)C1(O)CCN(C(=O)c2cc3c(cn2)c(Nc2cc(F)ccn2)nn3CC(F)(F)F)CC1 [Compound 114, [3-(4-Fluoro-pyridin-2-ylamino)-1-(2,2,2-trifluoro-ethyl)-1H-pyrazolo[4,3-c]pyridin-6-yl]-(4-isopropyl-4-hydroxypiperidin-1-yl)-methanone]	< 100	< 100
O=C(c1cc2c(cn1)c(Nc1ccc(F)cn1)nn2CC(F)(F)F)N1CCC[C@H](F)C1 [Compound 100, [(3S)-3-fluoro-piperidin-1-yl]-[3-(5-Fluoro-pyridin-2-ylamino)-1-(2,2,2-trifluoro-ethyl)-1H-pyrazolo[4,3-c]pyridin-6-yl]methanone]	< 1000	< 100
[2H]C1([2H])COCCN(C(=O)c2cc3c(cn2)c(Nc2cc(F)ccn2)nn3CC(F)(F)F)C1 [Compound 60, (6,6-dideuterio-1,4-oxazepan-4-yl)-[3-[(4-fluoro-2-pyridyl)amino]-1-(2,2,2-trifluoroethyl)pyrazolo[4,3-c]pyridin-6-yl]methanone]	< 100	< 100
O=C(c1cc2c(cn1)c(Nc1cccc(F)c1)nn2CC(F)(F)F)N1CC2CCC(C1)O2 [Compound 20, [3-(3-fluoroanilino)-1-(2,2,2-trifluoroethyl)pyrazolo[4,3-c]pyridin-6-yl]-(8-oxa-3-azabicyclo[3.2.1]octan-3-yl)methanone]	< 1000	< 100
O=C(c1cc2c(cn1)c(Nc1ccc(F)cn1)nn2CC(F)(F)F)N1CCC(F)CC1 [Compound 96, (4-Fluoro-piperidin-1-yl)-[3-(5-fluoro-pyridin-2-ylamino)-1-(2,2,2-trifluoro-ethyl)-1H-pyrazolo[4,3-c]pyridin-6-yl]-methanone]	< 1000	< 100
O=C(c1cc2c(cn1)c(Nc1ccc(F)cn1)nn2CC(F)(F)F)N1CCC(O)CC1 [Compound 94, [3-[(5-fluoro-2-pyridyl)amino]-1-(2,2,2-trifluoroethyl)pyrazolo[4,3-c]pyridin-6-yl]-(4-hydroxypiperidin-1-yl)methanone]	< 100	< 100
[2H]C1([2H])COCCN(C(=O)c2cc3c(cn2)c(Nc2cccc(F)c2)nn3CC(F)(F)F)C1 [Compound 40, (6,6-dideuterio-1,4-oxazepan-4-yl)-[3-(3-fluoroanilino)-1-(2,2,2-trifluoroethyl)pyrazolo[4,3-c]pyridin-6-yl]methanone]	< 100	< 100
O=C(c1cc2c(cn1)c(Nc1cccc(Cl)c1)nn2CC(F)(F)F)N1CCCOCC1 [Compound 37, [3-(3-chloroanilino)-1-(2,2,2-trifluoroethyl)pyrazolo[4,3-c]pyridin-6-yl]-(1,4-oxazepan-4-yl)methanone]	< 1000	< 100
O=C(c1cc2c(cn1)c(Nc1ccc(F)c(Cl)n1)nn2CC(F)(F)F)N1CCCOCC1 [Compound 65, [3-[(6-chloro-5-fluoro-2-pyridyl)amino]-1-(2,2,2-trifluoroethyl)pyrazolo[4,3-c]pyridin-6-yl]-(1,4-oxazepan-4-yl)methanone]	< 1000	< 100
O=C(c1cc2c(cn1)c(Nc1cc(F)ccn1)nn2CC(F)(F)F)N1CCC(O)CC1 [Compound 111, [3-[(4-fluoro-2-pyridyl)amino]-1-(2,2,2-trifluoroethyl)pyrazolo[4,3-c]pyridin-6-yl]-(4-hydroxypiperidin-1-yl)methanone]	< 100	< 100
O=C(c1cc2c(cn1)c(Nc1ccccn1)nn2CC(F)(F)F)N1CCCOCC1 [Compound 42, 1,4-oxazepan-4-yl-[3-(2-pyridylamino)-1-(2,2,2-trifluoroethyl)pyrazolo[4,3-c]pyridin-6-yl]methanone]	< 100	< 100
CS(=O)(=O)Cn1nc(Nc2ccc(F)cn2)c2cnc(C(=O)N3CCCOCC3)cc21 [Compound 77, [3-(5-Fluoro-pyridin-2-ylamino)-1-methanesulfonylmethyl-1H-pyrazolo[4,3-c]pyridin-6-yl]-[1,4]oxazepan-4-yl-methanone]	< 100	< 100
N#Cc1cccc(Nc2nn(CC(F)(F)F)c3cc(C(=O)N4CCCOCC4)ncc23)c1 [Compound 8, 3-[[6-(1,4-oxazepane-4-carbonyl)-1-(2,2,2-trifluoroethyl)pyrazolo[4,3-c]pyridin-3-yl]amino]benzonitrile]	< 1000	< 100
O=C(c1cc2c(cn1)c(Nc1cccc(F)c1)nn2CC(F)(F)F)N1CCC(O)CC1 [Compound 23, [3-(3-fluoroanilino)-1-(2,2,2-trifluoroethyl)pyrazolo[4,3-c]pyridin-6-yl]-(4-hydroxy-1-piperidyl)methanone]	< 100	< 100
O=C(c1cc2c(cn1)c(Nc1cc(Cl)c(F)cn1)nn2CC(F)(F)F)N1CCCOCC1 [Compound 66, [3-[(4-chloro-5-fluoro-2-pyridyl)amino]-1-(2,2,2-trifluoroethyl)pyrazolo[4,3-c]pyridin-6-yl]-(1,4-oxazepan-4-yl)methanone]	< 1000	< 100
[2H]C1([2H])COCCN(C(=O)c2cc3c(cn2)c(Nc2ccc(F)cn2)nn3CC(F)(F)F)C1 [Compound 91, (6,6-dideuterio-1,4-oxazepan-4-yl)-[3-[(5-fluoro-2-pyridyl)amino]-1-(2,2,2-trifluoroethyl)pyrazolo[4,3-c]pyridin-6-yl]methanone]	< 100	< 100
CC1(O)CCN(C(=O)c2cc3c(cn2)c(Nc2cnccn2)nn3CC(F)(F)F)CC1 [Compound 123, [3-(pyrazin-2ylamino)-1-(2,2,2-trifluoro-ethyl)-1H-pyrazolo[4,3-c]pyridin-6-yl]-(4-hydroxy-4-methyl-piperidin-1-yl)-methanone]	< 1000	< 1000
CC1(O)CCN(C(=O)c2cc3c(cn2)c(Nc2cccc(F)c2)nn3CC(F)(F)F)CC1 [Compound 35, [3-(3-fluoroanilino)-1-(2,2,2-trifluoroethyl)pyrazolo[4,3-c]pyridin-6-yl]-(4-hydroxy-4-methyl-1-piperidyl)methanone]	< 1000	< 100
O=C(c1cc2c(cn1)c(Nc1ccc(F)cn1)nn2CC(F)(F)F)N1CCOC[C@@H](F)C1 [Compound 93, [(6S)-6-fluoro-1,4-oxazepan-4-yl]-[3-[(5-fluoro-2-pyridyl)amino]-1-(2,2,2-trifluoroethyl)pyrazolo[4,3-c]pyridin-6-yl]methanone]	< 100	< 100
O=C(c1cc2c(cn1)c(Nc1ccccc1)nn2CC(F)(F)F)N1CCCOCC1 [Compound 2, [3-anilino-1-(2,2,2-trifluoroethyl)pyrazolo[4,3-c]pyridin-6-yl]-(1,4-oxazepan-4-yl)methanone]	< 1000	< 100
CC1(O)CCN(C(=O)c2cc3c(cn2)c(Nc2ccc(F)cn2)nn3CC(F)(F)F)CC1 [Compound 95, [3-(5-Fluoro-pyridin-2-ylamino)-1-(2,2,2-trifluoro-ethyl)-1H-pyrazolo[4,3-c]pyridin-6-yl]-(4-hydroxy-4-methyl-piperidin-1-yl)-methanone]	< 1000	< 100
O=C(c1cc2c(cn1)c(Nc1ccc(Cl)c(F)c1)nn2CC(F)(F)F)N1CCCOCC1 [Compound 19, [3-(4-chloro-3-fluoroanilino)-1-(2,2,2-trifluoroethyl)pyrazolo[4,3-c]pyridin-6-yl]-(1,4-oxazepan-4-yl)methanone]	< 100	< 100
O=C(c1cc2c(cn1)c(Nc1ccc(F)cn1)nn2CC(F)(F)F)N1CCC[C@@H](F)C1 [Compound 99, [(3R)-3-fluoro-piperidin-1-yl]-[3-(5-Fluoro-pyridin-2-ylamino)-1-(2,2,2-trifluoro-ethyl)-1H-pyrazolo[4,3-c]pyridin-6-yl]methanone]	< 1000	< 100
CS(=O)(=O)Cn1nc(Nc2cccc(F)c2)c2cnc(C(=O)N3CCCOCC3)cc21 [Compound 28, [3-(3-fluoroanilino)-1-(methylsulfonylmethyl)pyrazolo[4,3-c]pyridin-6-yl]-(1,4-oxazepan-4-yl)methanone]	< 100	< 100
O=C(c1cc2c(cn1)c(Nc1cc(F)ccn1)nn2CC(F)(F)F)N1CCC[C@H](O)C1 [Compound 117, [(3S)-3-hydroxy-piperidin-1-yl]-[3-(4-fluoro-pyridin-2-ylamino)-1-(2,2,2-trifluoro-ethyl)-1H-pyrazolo[4,3-c]pyridin-6-yl]methanone]	< 100	< 100
O=C(c1cc2c(cn1)c(Nc1cc(Cl)ccn1)nn2CC(F)(F)F)N1CCCOCC1 [Compound 64, [3-[(4-chloro-2-pyridyl)amino]-1-(2,2,2-trifluoroethyl)pyrazolo[4,3-c]pyridin-6-yl]-(1,4-oxazepan-4-yl)methanone]	< 100	< 100
O=C(c1cc2c(cn1)c(Nc1ccc(F)c(F)c1)nn2CC(F)(F)F)N1CCCOCC1 [Compound 17, [3-(3,4-difluoroanilino)-1-(2,2,2-trifluoroethyl)pyrazolo[4,3-c]pyridin-6-yl]-(1,4-oxazepan-4-yl)methanone]	< 1000	< 100
O=C(c1cc2c(cn1)c(Nc1cnccn1)nn2CC(F)(F)F)N1CCCOCC1 [Compound 61, 1,4-oxazepan-4-yl-[3-(pyrazin-2-ylamino)-1-(2,2,2-trifluoroethyl)pyrazolo[4,3-c]pyridin-6-yl]methanone]	< 100	< 100
